Source: PMC9811652 (RSC Advances, 2023)
pIC50: −log10 of the molar value.

Columns and labels:
BChE = settings: at 200 μM; cited from earlier work
AChE = settings: at 200 μM; cited from earlier work
[1] = molecular target: human serum acetylcholinesterase (Homo sapiens, UniProt P22303); assay: biochemical
Chain of human serum acetylcholinesterase (P22303 32-574 limits assumed): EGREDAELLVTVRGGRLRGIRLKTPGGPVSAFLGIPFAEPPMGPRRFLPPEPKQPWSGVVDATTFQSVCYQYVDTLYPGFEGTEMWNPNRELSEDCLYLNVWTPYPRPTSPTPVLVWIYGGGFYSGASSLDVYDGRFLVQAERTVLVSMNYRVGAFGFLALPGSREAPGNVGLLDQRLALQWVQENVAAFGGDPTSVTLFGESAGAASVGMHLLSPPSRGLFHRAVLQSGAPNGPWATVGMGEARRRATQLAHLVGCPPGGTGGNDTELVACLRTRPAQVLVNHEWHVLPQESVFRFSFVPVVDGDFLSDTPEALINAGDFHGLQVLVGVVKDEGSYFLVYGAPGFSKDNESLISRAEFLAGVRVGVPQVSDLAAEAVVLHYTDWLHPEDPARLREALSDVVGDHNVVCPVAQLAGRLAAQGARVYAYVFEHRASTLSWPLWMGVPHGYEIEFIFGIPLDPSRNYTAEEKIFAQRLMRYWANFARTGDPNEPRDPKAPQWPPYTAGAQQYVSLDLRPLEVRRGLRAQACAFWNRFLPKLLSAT

Compound | percentage inhibition, BChE (BChE) | percentage inhibition, AChE (AChE) | pIC50 [1]
COc1ccc2c3c1O[C@H]1C[C@@H](O)C=C[C@@]31CCN(C)C2 [Galantamine] | 79.72 ± 0.33% | 78.76 ± 0.94% | –
COc1c(OC)c(OC)c2c(-c3ccccc3)c(-c3ccccc3)[nH]c2c1CNc1ccc([N+](=O)[O-])cc1 [indole amine 25, 4,5,6-Trimethoxy-7-(4′-nitrophenylaminomethyl)-2,3-diphenyl-(1H)-indole] | – | – | 5.37
COc1c(OC)c(OC)c2c(-c3ccccc3)c(-c3ccccc3)[nH]c2c1CNc1cccc([N+](=O)[O-])c1 [indole amine 24, 4,5,6-Trimethoxy-7-(3′-nitrophenylaminomethyl)-2,3-diphenyl-(1H)-indole] | – | – | 5.33
COc1c(OC)c(OC)c2c(-c3ccccc3)c(-c3ccccc3)[nH]c2c1CNc1ccccc1 [indole amine 23, 4,5,6-Trimethoxy-2,3-diphenyl-7-phenylaminomethyl-(1H)-indole] | – | – | 4.92
